Results: patent US9856480B2, “Dnazyme for silencing the expression of EGFR” (DCB-USA LLC, priority 2013, dated 2018)
Strand notation (5' to 3'): a small letter for the sugar, then the base; units joined by * are phosphorothioate-linked, units joined directly phosphodiester-linked; [ ] holds rarer units or linkages, { } end groups; capitals alone tell only the bases. d = 2'-deoxy (DNA)

Assays:
Type in all cases: cell-based, human
CL97 cells = experiment: Apoptosis assay (annexin V and PI, flow cytometry); conditions: 100 nM, 48 h
Protocol: (§1) H1975 or CL97 was seeded onto 10-cm dish and cultured overnight. Then, cells were separately treated with 100 nM DzControl or DzT790M-1 with lipofectamine 2000 (Invitrogen). After 48 h, cells were collected, double stained by annexin V and PI, and analyzed by flow cytometry following the protocol of Dead cell apoptosis kit from manufacturer (Invitrogen).

H1975 cells = experiment: Apoptosis assay (annexin V and PI, flow cytometry); conditions: 100 nM, 48 h
Protocol: as §1

[1] = test system: EGFR E746-A750 deletion mRNA; experiment: Quantitative RT-PCR of EGFR mRNA in PC9 cells; conditions: 50, 100, or 150 nM, 48 h, DzControl-treated group as 100% expression
Protocol: Then, A549 and PC9 cells were separately treated with 50, 100, or 150 nM control DNAzyme or DzEGFR—ΔE746-A750 with Lipofectamine 2000 for 48 h. A549 and H1975 cells were separately treated with 100 nM control DNAzyme or different DzL858Rs with Lipofectamine 2000 for 48 h. RNA purification was done by conventional TRIzol® (Invitrogen Corp., Grand Island, N.Y.) method following manufacturer's protocol. Quantitative RT-PCR was performed on 40 ng total mRNA with the LightCycler 480 system (Roche). The PCR mix contained 5 μl of 2× ProbeMaster mix, 100 nM of UPL probe (Roche Diagnostics, Penzberg, Germany) and 200 nM of primer (each) in a total volume of 10 μl. The PCR conditions were 95° C. for 10 min, followed by 60 cycles at 95° C. for 10 s, 60° C. for 10 s, and 72° C. for 2 s. Data were analyzed by LC480 software (Roche Diagnostics). The relative amount of EGFR mRNA was normalized to ACTB mRNA. The sequences of PCR primers are as follows: […]

wild-type EGFR mRNA = experiment: Quantitative real-time PCR of EGFR mRNA knockdown; conditions: A549 cells; 50, 100, or 150 nM; 48 h
Protocol: A549, CL1-5, H1975, or CL97 was seeded onto 6-well at 3×10^5 cells/well and cultured overnight. Then, cells were separately treated with 100 nM DzControl or DzT790M-1 with lipofectamine 2000 (Invitrogen). After 48 h, total mRNA were extracted from DNAzyme-treated cells by Mestrisol following manufacturer's protocol. cDNA were synthesized by using RT III kit with random hexamers as primers (Invitrogen). The PCR primers were synthesized by Genomics BioSci & Tech (Taipei, Taiwan). The sequences of PCR primers are listed as follows: […]
The parameters for PCR were: 95° C. for 10 min, then 25 cycles of PCR at 95° C. for 30 s, 60° C. for 30 s, and 72° C. for 60 s. 3% agarose gels were used for electrophoresis of PCR products. The intensity of bands were quantified by Image J. Quantitative RT-PCR was performed on 40 ng total mRNA with the LightCycler 480 system (Roche). The PCR mix contained 5 μl of 2× Probe Master mix, 100 nM of UPL probe (Roche Diagnostics, Penzberg, Germany), 200 nM of forward primer and reverse primer, 0.1 ul RNAseout (Invitrogen), and 0.025 ul RTIII enzyme (Invitrogen) in a total volume of 10 μl. PCR parameters were as follows: 50° C. for 40 min, then 45 cycles of PCR at 95° C. for 10 s, 60° C. for 10 s, and 72° C. for 2 s. Data were analyzed by LC480 software (Roche Diagnostics, Penzberg, Germany). The relative amount of EGFR mRNA was normalized to ACTB mRNA. The sequences of PCR primers are as follows: […]
To examine the allele selectivity of DzT790M-1, EGFR mRNA knockdown efficiency was detected in two cell lines harboring wild-type EGFR (A549, CL1-5) and two cell lines containing EGFR T790M mutation (H1975, CL97). A549, CL1-5, H1975, or CL97 was seeded onto 6-well at 3×10^5 cells/well and cultured overnight. […]
Then, A549 and PC9 cells were separately treated with 50, 100, or 150 nM control DNAzyme or DzEGFR—ΔE746-A750 with Lipofectamine 2000 for 48 h. […] Quantitative RT-PCR was performed on 40 ng total mRNA with the LightCycler 480 system (Roche). […] Data were analyzed by LC480 software (Roche Diagnostics). […]

[2] = test system: A549 cells (wild type EGFR); experiment: Cell proliferation (MTT); conditions: 150 nM of DNAzyme, 48 h
Protocol: (§2) Then, cells were separately treated with 50, 100, or 150 nM control DNAzyme or DzEGFR—ΔE746-A750 with Lipofectamine 2000 for 48 h.

[3] = test system: PC9 cells (E746-A750 deletion EGFR); experiment: Cell proliferation (MTT); conditions: 48 h, DzControl-treated group as 0% death
Protocol: as §2

wild-type EGFR = experiment: Western immunoblotting of EGFR expression and downstream signaling in wild-type EGFR cell lines; conditions: A549 and CL1-5 cells, 100 nM
Protocol: A549, CL1-5, H1975, or CL97 was seeded onto 6-well at 3×10^5 cells/well and cultured overnight. Then, cells were separately treated with 100 nM DzControl or DzT790M-1 with lipofectamine 2000 (Invitrogen). The transfected A549 and CL1-5 cells were serum-starved for 24 h and treated with 100 ng/ml of EGF at 37° C. for 15 min. 72 h after transfection, cell were collected for analysis. Cells were washed twice by ice-cold PBS and then total protein was extracted by RIPA buffer with protease inhibitor (Roche). 50 μg of total protein from the supernatants were boiled for 5 min at 95° C. The samples were resolved on 10% SDS-PAGE gel and transferred onto nitrocellulose membranes. EGFR expression and downstream signaling were detected by using primary antibodies specific to human pEGFR(Y1068) (Cell signaling), tEGFR (Santa Cruz), pSTAT3 (Y705) (Cell signaling), tSTAT3 (Cell signaling), pAKT (5473)(Cell signaling), tAKT (Santa Cruz), pERK (T202/Y204) (Cell signaling), tERK (Santa Cruz), and cleaved PARP (Cell signaling) at 1:1000 dilution and β-actin (Santa Cruz) at 1:10000 dilution, respectively. Secondary antibodies against rabbit IgG or mouse IgG was used at 1:5000 dilution. Protein bands on membrane were visualized by exposure to the chemiluminescence substrate.
EGFR belongs to receptor tyrosine kinases. The binding of its extracellular ligands triggers receptor dimerization, tyrosine residues phosphorylation, and downstream signaling activation including signal transducer and activator of transcription 3 (STAT3), Akt, extracellular signal regulated kinases (ERK), and others. To examine the effects of DzT790M on protein expression level of EGFR and its downstream signaling, western immunoblotting was performed on DzT790M transfected cells. A549, CL1-5, H1975, or CL97 was seeded onto 6-well at 3×10^5 cells/well and cultured overnight. Then, cells were separately treated with 100 nM DzControl or DzT790M-1 with lipofectamine 2000 (Invitrogen). The transfected A549 and CL1-5 cells were serum-starved for 24 h and treated with 100 ng/ml of EGF at 37° C. for 15 min. 72 h after transfection, cell were collected for analysis. Cells were washed twice by ice-cold PBS and then total protein was extracted by RIPA buffer with protease inhibitor (Roche). […] Also, activation of downstream STAT3, AKT, and ERK signaling after EGF treatment were not inhibited by DzT790M-1 or DzT790M-2 transfection.
CL1-5 (EGFR wild-type) or H1975 (EGFR T790M) were seeded onto 6-well at 3×10^5 cells/well and cultured overnight. […] The transfected CL1-5 cells were serum-starved for 24 h and treated with 100 ng/ml of EGF at 37° C. for 15 min. 72 h after transfection, cells were collected for western blotting analysis following the above mentioned procedure. […]

DzControl: control DNAzyme not complementary to any mRNA in human cells: CATCGGAGGCTAGCTACAACGAGACAGCTG (DNA dC*dAdTdCdGdGdAdGdGdCdTdAdGdCdTdAdCdAdAdCdGdAdGdAdCdAdGdCdT*dG; further chemistry not fully specified) [reference compound]
percentage of apoptotic cells in whole cell population (CL97 cells): 5.2% | percentage of dead cells in whole cell population (CL97 cells): 17% | apoptotic cells (H1975 cells): 3.6% | dead cells (annexin V and PI double positive) (H1975 cells): 12.4%

DzEGFR—ΔE746-A750: DNAzyme against EGFR E746-A750 deletion: GGAGATGTGTCAGCTGACTCGAATGATAGCGAC (DNA, backbone and methylation of C not given here)
mutant EGFR expression [1]: suppressed | binding and action on wild type EGFR (wild-type EGFR mRNA): did not bind and act | viability of A549 cells affected [2]: 20% | death of PC9 cells [3]: 60%

DzT790M-2: 10-23 DNAzyme against EGFR T790M mRNA, arms 8/8: GAGCTGCAGGCTAGCTACAACGAGATGAGCT (DNA, backbone and methylation of C not given here)
activation of downstream STAT3, AKT, and ERK signaling after EGF treatment (wild-type EGFR; 100 ng/ml EGF 15 min): not inhibited | protein level of EGFR compared to DzControl group (wild-type EGFR; 72 h after transfection): did not decreased
